Patent publication US20240174690A1, “ANNULATED 2-AMINO-3-CYANO THIOPHENES AND DERIVATIVES FOR THE TREATMENT OF CANCER” (BOEHRINGER INGELHEIM INTERNATIONAL GMBH, priority 2021, published 2024)

Experiments:
KRAS (G13D)::SOS1 = KRAS (G13D)::SOS1 (Homo sapiens (Human), UniProt P01116, C118S/G13D); experiment: KRAS::SOS1 AlphaScreen binding assay, KRAS G13D
Source text: (§1) This assay can be used to examine the potency with which compounds according to the invention binding to (mutated) KRAS inhibit the protein-protein interaction between SOS1 and (mutated) KRAS e.g., KRAS WT, KRAS G12C, KRAS G12D, KRAS G12V, KRAS G13D. […] Low IC50 values in this assay setting are indicative of strong inhibition of protein-protein interaction between SOS1 and KRAS:
(§2) These assays measure the inhibitory effect of compounds on KRAS mutant protein-protein interactions using the Alpha Screen technology by Perkin Elmer.
(§3) The following (mutant) enzyme forms of KRAS and interacting proteins are used in these assays at the given concentrations: • KRAS (G12D) 1-169, N-terminal 6His-tag, C-terminal avi-tag (Xtal BioStructures, Inc.); final assay concentration 10 nM and SOS1 564-1049, N-terminal 229 GST-tag, TEV cleavage site (Viva Biotech Ltd); final assay concentration 5 nM; • KRAS (G12C) 1-169, N-terminal 6His-tag for purification, cleaved off, C-terminal avi-tag, biotinylated, mutations: C51S, C80L, C118S (in house); final assay concentration 7.5 nM and SOS1 564-1049, N-terminal 229 GST-tag, TEV cleavage site (Viva Biotech Ltd); final assay concentration 5 nM; • KRAS (G12V) 1-169, N-terminal 6His-tag for purification, cleaved off, C-terminal avi-tag, biotinylated, TEV cleavage site, mutation: C118S, GDP loaded (in house); final assay concentration 10 nM and SOS1 564-1049, N-terminal 229 GST-tag, TEV cleavage site (Viva Biotech Ltd); final assay concentration 10 nM; • KRAS (G13D) 1-169, N-terminal 6His-tag for purification, cleaved off, C-terminal avi-tag, biotinylated, TEV cleavage site, mutation: C118S, GDP loaded (in house); final assay concentration 10 nM and SOS1 564-1049, N-terminal 229 GST-tag, TEV cleavage site (Viva Biotech Ltd); final assay concentration 10 nM; • KRAS (WT) 1-169, N-terminal 6His-tag for purification, cleaved off, C-terminal avi-tag, biotinylated, TEV cleavage site, mutation: C118S, GDP loaded (in house); final assay concentration 10 nM and SOS1 564-1049, N-terminal 229 GST-tag, TEV cleavage site (Viva Biotech Ltd); final assay concentration 10 nM.
(§4) Test compounds dissolved in DMSO are dispensed onto assay plates (Proxiplate 384 PLUS, white, PerkinElmer; 6008289) using an Access Labcyte Workstation with the Labcyte Echo 55×. For the chosen highest assay concentration of 100 μM, 150 nL of compound solution are transferred from a 10 mM DMSO compound stock solution. A series of eleven fivefold dilutions per compound are transferred to the assay plate, compound dilutions are tested in duplicates. DMSO are added as backfill to a total volume of 150 nL.
(§5) The assays run on a fully automated robotic system in a darkened room below 100 Lux. To 150 nl of compound dilution 10 μl of a mix including KRAS mutant protein, SOS1 (final assay concentrations see above) and GDP nucleotide (Sigma G7127; final assay concentration 10 μM) in assay buffer (1×PBS, 0.1% BSA, 0.05% Tween 20) are added into columns 1-24.
(§6) After 30 minutes incubation time 5 μl of Alpha Screen bead mix in assay buffer are added into columns 1-23. Bead mix consists of AlphaLISA Glutathione Acceptor Beads (PerkinElmer, Cat No AL109) and AlphaScreen Streptavidin Donor Beads (PerkinElmer Cat No 6760002) in assay buffer at a final assay concentration of 10 μg/ml each.
(§7) Plates are kept at room temperature in a darkened incubator. After an additional 60 minutes incubation time the signal is measured in a PerkinElmer Envision HTS Multilabel Reader using the AlphaScreen specs from PerkinElmer.
(§8) Each plate contains up to 16 wells of a negative control depending on the dilution procedure (platewise or serial) (DMSO instead of test compound; with KRAS mutant::SOS1 GDP mix and bead mix; column 23) and 16 wells of a positive control (DMSO instead of test compound; with KRAS mutant::SOS1 GDP mix w/o bead mix; column 24).
(§9) As internal control known inhibitors of KRAS mutant::SOS1 interaction can be measured on each compound plate. […]

KRAS (G12V)::SOS1 = KRAS (G12V)::SOS1 (Homo sapiens (Human), UniProt P01116, C118S/G12V); experiment: KRAS::SOS1 AlphaScreen binding assay, KRAS G12V
Source text: as §1, §2, §3, §4, §5, §6, §7, §8, §9

KRAS (WT)::SOS1 = KRAS (WT)::SOS1 (Homo sapiens (Human), UniProt P01116, C118S); experiment: KRAS::SOS1 AlphaScreen binding assay, KRAS WT
Method in brief: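 KRAS 1-169 (biotinylated avi-tag) with GST-SOS1 564-1049 and 10 µM GDP in PBS/0.1% BSA/0.05% Tween 20: WT and G13D 10 nM each with 10 nM SOS1; G12D 10 nM and G12C 7.5 nM with 5 nM SOS1. After 30 min, glutathione acceptor/streptavidin donor beads were added for 60 min at RT in the dark, then AlphaScreen read; 4-parameter IC50.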

NCI-H2122 cells = experiment: NCI-H2122 CTG proliferation assay (120 h) (NSCLC, G12C); assay type: cell-based; details: Homo sapiens
Method in brief: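 Proliferation was read by CellTiter-Glo luminescence after 120 h of compound exposure, starting one day after seeding 200 NCI-H2122 (G12C) cells per well in RPMI/10% FCS. RLU relative to DMSO wells gave percent viability, and four-parameter nonlinear regression gave IC50.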

A375 cells = experiment: A375 CTG proliferation assay (120 h) (melanoma, wt, B-Raf mutant, negative control); assay type: cell-based; details: Homo sapiens, A-375, CTG 120 h
Description: A375 CTG Proliferation Assay (120 h) (Melanoma, Wt, B-Raf Mutant, Negative Control)
A375 cells (ATCC CRL-1619) are dispensed into 384-well plates, flat and clear bottom (Greiner, PNr. 781091) at a density of 300 cells per well in 60 μL DMEM (Sigma 06429)+10% Fetal Calf Serum (HyClone, PNr.: SH30084.03) and incubated at 37° C. in a CO2 incubator overnight. The next day, compounds (10 mM stock in DMSO) are added at logarithmic dose series using the HP Digital Dispenser D300 (Tecan), including DMSO controls. Plates are incubated for 120 h, and cell viability is measured using CellTiter-Glo luminescent cell viability reagent (Promega product code G7570). Viability (stated as percent of control) is defined as relative luminescence units RLU of each well divided by the RLU of cells in DMSO controls. IC50 values are determined from viability measurements by non-linear regression using a four-parameter model.

KRAS (G12V)::SOS1, sequence (P01116 other isoform, or with tags, fused parts or gaps G12V/C118S): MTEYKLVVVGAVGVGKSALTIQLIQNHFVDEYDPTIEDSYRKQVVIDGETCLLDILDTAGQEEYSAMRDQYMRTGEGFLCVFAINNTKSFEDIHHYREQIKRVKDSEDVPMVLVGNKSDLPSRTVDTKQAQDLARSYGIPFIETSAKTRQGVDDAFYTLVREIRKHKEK
KRAS (G13D)::SOS1, sequence (P01116 other isoform, or with tags, fused parts or gaps G13D/C118S): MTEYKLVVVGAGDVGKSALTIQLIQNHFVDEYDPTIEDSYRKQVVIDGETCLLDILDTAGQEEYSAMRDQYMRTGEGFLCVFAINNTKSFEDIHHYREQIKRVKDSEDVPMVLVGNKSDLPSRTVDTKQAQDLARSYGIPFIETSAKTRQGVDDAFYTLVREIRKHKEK
KRAS (WT)::SOS1, sequence (P01116 other isoform, or with tags, fused parts or gaps C118S): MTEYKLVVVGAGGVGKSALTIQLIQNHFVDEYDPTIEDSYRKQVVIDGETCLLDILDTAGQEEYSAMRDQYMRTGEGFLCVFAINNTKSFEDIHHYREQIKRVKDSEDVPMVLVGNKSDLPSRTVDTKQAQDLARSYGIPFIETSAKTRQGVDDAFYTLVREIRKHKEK

IC50 (KRAS (G13D)::SOS1) [nM] | IC50 (KRAS (G12V)::SOS1) [nM] | IC50 (KRAS (WT)::SOS1) [nM] | IC50 (NCI-H2122 cells) [nM] | IC50 (A375 cells) [nM] | SMILES
8 | – | – | – | – | CC(C)NC(=O)Cc1ccn(-c2cc(O[C@@H](C)[C@@H]3CCCN3C)nc(-c3noc4c3CCC[C@@]43CCCc4sc(N)c(C#N)c43)n2)n1 [II-182]
– | 2 | 6 | – | – | CO[C@H]1CCN(C)[C@@H]1[C@H](C)Oc1cc(-n2ccc(C(=O)N[C@@H](C)c3ccccn3)n2)nc(-c2noc3c2CCC[C@@]32CCCc3sc(N)c(C#N)c32)n1 [II-196]
– | 3 | 4 | – | – | C[C@H](Oc1cc(-n2ccc(C3(O)COC3)n2)nc(-c2noc3c2CCC[C@@]32CCCc3sc(N)c(C#N)c32)n1)[C@@H]1CCCN1C [II-189]
– | 2 | 7 | – | – | C[C@H](Oc1cc(-n2ccc(-c3cn(C4CCOCC4)nn3)n2)nc(-c2noc3c2CCC[C@@]32CCCc3sc(N)c(C#N)c32)n1)[C@@H]1CCCN1C [II-210]
7 | 1 | 5 | – | – | C[C@H](Oc1cc(-n2ccc(C(=O)N[C@@H]3CCOC3)n2)nc(-c2noc3c2CCC[C@@]32CCCc3sc(N)c(C#N)c32)n1)[C@@H]1CCCN1C [II-192]
– | 3 | 5 | 2220 | – | C[C@H](Oc1cc(N2CCN(C)C3(COC3)C2)nc(-c2noc3c2CCC[C@@]32CCCc3sc(N)c(C#N)c32)n1)[C@@H]1C[C@@H](F)CN1C [II-148]
– | – | 9 | 768 | 324 | C[C@H](Oc1cc(-n2cc(-c3cncs3)nn2)nc(-c2noc3c2CCC[C@@]32CCCc3sc(N)c(C#N)c32)n1)[C@@H]1CCCN1C [II-125]
– | 2 | – | – | – | CO[C@H]1CCN(C)[C@@H]1[C@H](C)Oc1cc(N2CCNC3(CC3)C2)nc(-c2noc3c2CCC[C@@]32CCCc3sc(N)c(C#N)c32)n1 [II-184]
64 | 50 | 7 | 3060 | – | C[C@H](Oc1cc(N2CCN(C)C3(CC3)C2)nc(-c2noc3c2CCC[C@@]32CCCc3sc(N)c(C#N)c32)n1)[C@@H]1CCCN1C [II-171]
27 | – | – | – | – | CO[C@H]1CCN(C)[C@@H]1[C@H](C)Oc1cc(-n2ccc(C(N)=O)n2)nc(-c2noc3c2CCC[C@@]32CCCc3sc(N)c(C#N)c32)n1 [II-201]
– | 2 | 8 | 180 | 1380 | C[C@H](Oc1cc(-c2cccc(C(N)=O)c2)nc(-c2noc3c2CCC[C@@]32CCCc3sc(N)c(C#N)c32)n1)[C@@H]1CCCN1C [II-133]
48 | 15 | 5 | 1790 | – | C[C@H](Oc1cc(N2CCNC3(CC3)C2)nc(-c2noc3c2CCC[C@@]32CCCc3sc(N)c(C#N)c32)n1)[C@@H]1C[C@@H](F)CN1C [II-165]
7 | 1 | 3 | – | – | COCCNC(=O)c1ccn(-c2cc(O[C@@H](C)[C@@H]3CCCN3C)nc(-c3noc4c3CCC[C@@]43CCCc4sc(N)c(C#N)c43)n2)n1 [II-195]
– | 2 | 5 | 221 | 1310 | C[C@H](Oc1cc(-n2ccc(-c3cnccn3)n2)nc(-c2noc3c2CCC[C@@]32CCCc3sc(N)c(C#N)c32)n1)[C@@H]1CCCN1C [II-130]
– | – | – | 584 | > 3000 | C[C@H](Oc1cc(N2CCOC2=O)nc(-c2noc3c2CCC[C@@]32CCCc3sc(N)c(C#N)c32)n1)[C@@H]1CCCN1C [II-143]

SMILES | IC50 (KRAS (G13D)::SOS1) [nM] | IC50 (KRAS (G12V)::SOS1) [nM] | IC50 (KRAS (WT)::SOS1) [nM] | IC50 (NCI-H2122 cells) [nM] | IC50 (A375 cells) [nM]
C[C@H](Oc1cc(-n2ccc(C(=O)N[C@H]3CCOC3)n2)nc(-c2noc3c2CCC[C@@]32CCCc3sc(N)c(C#N)c32)n1)[C@@H]1CCCN1C [II-193] | 9 | 2 | 6 | – | –
